Read-outs that look alike come from different tables or passages of the source. Blank lines part the entries; values can stand above or below the molecule they belong to. Where a SMILES comes first, the peptide text is derived from it. [ ]: non-standard residue; d: D form. Aib = CC(C)(N)C(=O)O
Tests used:
human GLP-1 receptor [1] = target: human GLP-1 receptor (human, UniProt P43220)
human GLP-1 receptor [2] = target: T1, human GLP-1 receptor (Homo sapiens, UniProt P43220)
human GLP-1 receptor [3] = target: T1, human GLP-1 receptor; assay: Functional GLP-1 receptor assay, in vitro potency (CRE luciferase; whole cells); format: cell-based; conditions: BHK cells expressing human GLP-1 receptor
Target sequence in this assay (P43220 24-463): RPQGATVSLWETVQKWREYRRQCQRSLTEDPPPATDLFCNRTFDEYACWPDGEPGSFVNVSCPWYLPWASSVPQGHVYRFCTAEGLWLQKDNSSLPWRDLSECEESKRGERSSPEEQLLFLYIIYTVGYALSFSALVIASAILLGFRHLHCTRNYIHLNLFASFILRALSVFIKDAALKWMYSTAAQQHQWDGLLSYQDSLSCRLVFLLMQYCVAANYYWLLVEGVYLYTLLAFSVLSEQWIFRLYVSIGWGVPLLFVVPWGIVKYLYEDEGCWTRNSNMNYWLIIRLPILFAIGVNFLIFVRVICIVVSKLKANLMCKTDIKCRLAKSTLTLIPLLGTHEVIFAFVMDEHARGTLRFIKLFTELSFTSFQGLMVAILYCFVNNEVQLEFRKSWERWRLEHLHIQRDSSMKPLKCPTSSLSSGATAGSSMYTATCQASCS

[4] = tested on: Mouse monocyte/macrophage cell line, RAW 264.7; assay: Cholesterol efflux assay (3H-cholesterol, macrophage cell line); format: cell-based; conditions: RAW 264.7, 4 hrs incubation, 0.1% human serum albumin; for 4 h Cholesterol Efflux Emax: ABCA1-mediated efflux
[5] = Pharmacokinetics in mini-pigs after i.v. administration; conditions: female, Göttingen, minipig, iv, 5 nmol/kg
In short: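 Female Göttingen mini-pigs (15-20 kg, N=3) received 5 nmol/kg i.v. via central venous catheter. Plasma levels of N-terminally intact peptide measured by LOCI immunoassay with N-terminal and mid-/C-terminal antibodies; non-compartmental analysis of individual profiles.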

[6] = Pharmacokinetics in normal mice after i.v. and s.c. administration; format: in vivo, female C57B1/6J mice
[7] = GLP1R CRE luc 1% HSA EC50 Mean Value, 1% HSA
[8] = plasma, T1/2 Mean Value, Göttingen mini-pigs, N=3
[9] = female, C57B1/6J, mouse, plasma, sc
[10] = mice, s.c., Compound 1 dose 323 nmol/kg, Compound 5 dose 62 nmol/kg

- CRE luciferase EC50, 0% HSA (human GLP-1 receptor [1]): 0.08 nM
- CRE luciferase EC50, 1% HSA (human GLP-1 receptor [1]): 0.049 nM
Molecule: [Aib2,His3,Glu15,Glu16,Glu17,Ala18,Lys20,Glu21,Ile23,Ala24,Leu27,Glu28,Lys29]-Glucagonyl-(1-29)-Aib-Lys-Glu-Phe-Leu amide (peptide)

- CRE luciferase EC50, 0% HSA (human GLP-1 receptor [1]): 0.118 nM
- CRE luciferase EC50, 1% HSA (human GLP-1 receptor [1]): 0.061 nM
Molecule: [Glu15,Glu16,Gln17,Ala18,Lys20,Glu21,Ile23,Ala24,Leu27,Glu28,Lys29]-Glucagonyl-(1-29)-Aib-Lys-Glu-Phe-Leu amide (peptide)

- CRE luciferase EC50, 0% HSA (human GLP-1 receptor [1]): 0.591 nM
- CRE luciferase EC50, 1% HSA (human GLP-1 receptor [1]): 0.297 nM
Molecule: [Aib2,Gly16,Lys17,Arg20,Glu21,Leu27,Glu28,Lys29]-Glucagonyl-(1-29)-Aib-Lys-Glu-Phe-Leu amide (peptide)

Molecule: Exendin-4(1-39) (ligand)
- CRE luciferase EC50, 0% HSA (human GLP-1 receptor [2]): 0.005 nM
- CRE luciferase EC50, 1% HSA (human GLP-1 receptor [2]): 0.004 nM

- CRE luciferase EC50, 0% HSA (human GLP-1 receptor [1]): 0.434 nM
- CRE luciferase EC50, 1% HSA (human GLP-1 receptor [1]): 0.198 nM
Molecule: [Lys17,Ala18,Arg20,Glu21,Leu27,Glu28,Lys29]-Glucagonyl-(1-29)-Aib-Lys-Glu-Phe-Leu amide (peptide)

- CRE luciferase EC50, 0% HSA (human GLP-1 receptor [1]): 1.63 nM
- CRE luciferase EC50, 1% HSA (human GLP-1 receptor [1]): 0.908 nM
Molecule: [Aib2,Gly16,Lys17,Ala18,Arg20,Glu21,Leu27,Glu28,Lys29]-Glucagonyl-(1-29)-Aib-Lys-Glu-Phe-Leu amide (peptide)

- EC50 (human GLP-1 receptor [3]; [7]): 0.116 nM
- C0 ([5]; plasma): 63.3 nM
- Vd ([5]; plasma): 0.128 L/kg
- clearance ([5]; plasma): 3.87 mL/h/kg
- half-life ([5]; plasma, T1/2, mini-pigs): 23 h
- half-life [5, 8]: 23 h
- half-life ([6]; female, C57B1/6J, mouse, plasma, iv): 5.9 h
- Vd ([6]; female, C57B1/6J, mouse, plasma, iv, read-out: Volume of distribution): 0.048 L/kg
- Tmax [6, 9]: 4 h
- half-life [6, 9]: 9.7 h
- clearance ([6]; mice, i.v., Compound 1 dose 99 nmol/kg, Compound 5 dose 135 nmol/kg): 5.6 mL/h/kg
- Volume of distribution [6, 10]: 0.1164 L/kg
- clearance [6, 10]: 8.298 mL/h/kg
Molecule: CC[C@H](C)[C@H](NC(=O)[C@H](Cc1ccccc1)NC(=O)[C@H](CCC(=O)O)NC(=O)[C@H](CCCCN)NC(=O)[C@@H](NC(=O)[C@H](C)NC(=O)[C@H](CCC(=O)O)NC(=O)CNC(=O)[C@H](CCC(=O)O)NC(=O)[C@H](CC(C)C)NC(=O)[C@H](Cc1ccc(O)cc1)NC(=O)[C@H](CO)NC(=O)[C@H](CO)NC(=O)[C@@H](NC(=O)[C@H](CC(=O)O)NC(=O)[C@H](CO)NC(=O)[C@@H](NC(=O)[C@H](Cc1ccccc1)NC(=O)[C@@H](NC(=O)CNC(=O)[C@H](CCC(=O)O)NC(=O)C(C)(C)NC(=O)[C@@H](N)Cc1c[nH]cn1)[C@@H](C)O)[C@@H](C)O)C(C)C)C(C)C)C(=O)N[C@@H](C)C(=O)N[C@@H](Cc1c[nH]c2ccccc12)C(=O)N[C@@H](CC(C)C)C(=O)N[C@H](C(=O)N[C@@H](CCC(=O)O)C(=O)N[C@@H](CCCCN)C(=O)N[C@H](C(=O)N[C@@H](CCCCN)C(=O)N[C@@H](CCC(=O)O)C(=O)N[C@@H](Cc1c[nH]cn1)C(=O)N[C@@H](CC(C)C)C(N)=O)C(C)C)C(C)C [Compound 5, [Aib8,Glu23,Val25,Glu34,Lys35,Val36,Lys37]-GLP-1-(7-37)-peptidyl-Glu-His-Leu amide] (H-H[Aib]EGTFTSDVSSYLEGEAVKEFIAWLVEKVKEHL-NH2)
- 4 h Cholesterol Efflux Emax [4]: 111%

- CRE luciferase EC50, 0% HSA (human GLP-1 receptor [1]): 0.086 nM
- CRE luciferase EC50, 1% HSA (human GLP-1 receptor [1]): 0.044 nM
Molecule: [Glu15,Glu16,Lys17,Ala18,Lys20,Glu21,Ile23,Ala24,Leu27,Glu28,Lys29]-Glucagonyl-(1-29)-Aib-Lys-Glu-Phe-Leu amide (peptide)

- CRE luciferase EC50, 0% HSA (human GLP-1 receptor [1]): 1.17 nM
- CRE luciferase EC50, 1% HSA (human GLP-1 receptor [1]): 0.588 nM
Molecule: [Glu15,Glu16,Lys17,Lys18,Lys20,Glu21,Ile23,Ala24,Leu27,Glu28,Lys29]-Glucagonyl-(1-29)-Aib-Lys-Glu-Phe-Leu amide (peptide)

- EC50 (human GLP-1 receptor [3]; 0% HSA, read-out: GLP1R CRE luc 0% HSA EC50 Mean Value): 0.108 nM
- EC50 (human GLP-1 receptor [3]; [7]): 0.042 nM
- C0 ([5]; plasma): 147 nM
- Vd ([5]; plasma): 0.154 L/kg
- clearance ([5]; plasma): 2.39 mL/h/kg
- half-life [5, 8]: 44.9 h
Molecule: CC[C@H](C)[C@H](NC(=O)[C@H](Cc1ccccc1)NC(=O)[C@H](CCC(=O)O)NC(=O)[C@H](CCCCN)NC(=O)[C@H](C)NC(=O)[C@H](C)NC(=O)[C@H](CCC(N)=O)NC(=O)CNC(=O)[C@H](CCC(=O)O)NC(=O)[C@H](CC(C)C)NC(=O)[C@H](Cc1ccc(O)cc1)NC(=O)[C@H](CO)NC(=O)[C@H](CO)NC(=O)[C@@H](NC(=O)[C@H](CC(=O)O)NC(=O)[C@H](CO)NC(=O)[C@@H](NC(=O)[C@H](Cc1ccccc1)NC(=O)[C@@H](NC(=O)CNC(=O)[C@H](CCC(=O)O)NC(=O)C(C)(C)NC(=O)[C@@H](N)Cc1c[nH]cn1)[C@@H](C)O)[C@@H](C)O)C(C)C)C(=O)N[C@@H](C)C(=O)N[C@@H](Cc1c[nH]c2ccccc12)C(=O)N[C@@H](CC(C)C)C(=O)N[C@H](C(=O)N[C@@H](CCC(=O)O)C(=O)N[C@@H](CCCCN)C(=O)NC(C)(C)C(=O)N[C@@H](CCCCN)C(=O)N[C@@H](CCC(=O)O)C(=O)N[C@@H](Cc1ccccc1)C(=O)N[C@@H](CC(C)C)C(N)=O)C(C)C [Compound 45, [Aib8,Glu34,Lys35,Aib36,Lys37]-GLP-1-(7-37)-peptidyl-Glu-Phe-Leu amide]
- 4 h Cholesterol Efflux Emax [4]: 97%

Molecule: CC(C)C[C@H](NC(=O)[C@H](Cc1ccccc1)NC(=O)[C@H](CCC(=O)O)NC(=O)[C@H](CCCCN)NC(=O)C(C)(C)NC(=O)[C@H](CCCCN)NC(=O)[C@H](CCC(=O)O)NC(=O)[C@H](CC(C)C)NC(=O)[C@H](CC(C)C)NC(=O)[C@H](Cc1c[nH]c2ccccc12)NC(=O)[C@H](CCC(N)=O)NC(=O)[C@@H](NC(=O)[C@H](Cc1ccccc1)NC(=O)[C@H](CCC(=O)O)NC(=O)[C@H](CCCNC(=N)N)NC(=O)[C@H](C)NC(=O)[C@H](C)NC(=O)[C@H](CCCCN)NC(=O)[C@H](CO)NC(=O)[C@H](CC(=O)O)NC(=O)[C@H](CC(C)C)NC(=O)[C@H](Cc1ccc(O)cc1)NC(=O)[C@H](CCCCN)NC(=O)[C@H](CO)NC(=O)[C@H](Cc1ccc(O)cc1)NC(=O)[C@H](CC(=O)O)NC(=O)[C@H](CO)NC(=O)[C@@H](NC(=O)[C@H](Cc1ccccc1)NC(=O)[C@@H](NC(=O)CNC(=O)[C@H](CCC(N)=O)NC(=O)C(C)(C)NC(=O)[C@@H](N)Cc1c[nH]cn1)[C@@H](C)O)[C@@H](C)O)C(C)C)C(N)=O [Compound 26] (H-H[Aib]QGTFTSDYSKYLDSKAAREFVQWLLEK[Aib]KEFL-NH2)
- EC50 (human GLP-1 receptor [3]; GLP1R CRE luc 0% HSA EC50 Mean Value, 0% HSA): 0.393 nM
- EC50 (human GLP-1 receptor [3]; [7]): 0.153 nM
- 4 h Cholesterol Efflux Emax [4]: 87%
- EC50 ([4]; read-out: 4 h Cholesterol Efflux EC50, ABCA1-mediated efflux (CPT-cAMP induced minus non-induced)): 200 nM
- C0 ([5]; in vivo): 123 nM
- Vd ([5]; in vivo): 0.0549 L/kg
- clearance ([5]; in vivo): 5.21 mL/h/kg
- half-life ([5]; in vivo): 7.3 h

- CRE luciferase EC50, 0% HSA (human GLP-1 receptor [1]): 0.393 nM
- CRE luciferase EC50, 1% HSA (human GLP-1 receptor [1]): 0.153 nM
Molecule: [Aib2,Lys17,Ala18,Arg20,Glu21,Leu27,Glu28,Lys29]-Glucagonyl-(1-29)-Aib-Lys-Glu-Phe-Leu amide (peptide)

Reference: patent US20150344540A1, “NOVEL GLP-1 RECEPTOR AGONISTS WITH CHOLESTEROL EFFLUX ACTIVITY” (NOVO NORDISK A/S, priority 2012, published 2015)
